Test results published in ChEMBL document CHEMBL5370693, “Kinases Controlling Stability of the Oncogenic MYCN Protein” (ACS Med Chem Lett, 2023).
Activity calls are given as the source filed them. No cut-off for these calls is given here.

Tests used:
[1] = tested on: Phosphatidylinositol 4,5-bisphosphate 3-kinase catalytic subunit alpha isoform (Homo sapiens), P42336 [H1047Y]; assay: Inhibition of PIK3CA H1047Y mutant (unknown origin) assessed as remaining activity at 15 uM incubated for 1 hr by KINOMEscan competitive binding assay relative to control
[2] = biological target: Phosphatidylinositol 4-phosphate 3-kinase C2 domain-containing subunit beta (Homo sapiens) (UniProt O00750); assay: Inhibition of PIK3C2B (unknown origin) assessed as remaining activity at 15 uM incubated for 1 hr by KINOMEscan competitive binding assay relative to control
[3] = biological target: Phosphatidylinositol 4,5-bisphosphate 3-kinase catalytic subunit alpha isoform (Homo sapiens) (UniProt P42336); assay: Inhibition of PIK3CA (unknown origin) assessed as remaining activity at 15 uM incubated for 1 hr by KINOMEscan competitive binding assay relative to control
[4] = tested on: Phosphatidylinositol 4,5-bisphosphate 3-kinase catalytic subunit alpha isoform (Homo sapiens), P42336 [H1047L]; assay: Inhibition of PIK3CA H1047L mutant (unknown origin) assessed as remaining activity at 15 uM incubated for 1 hr by KINOMEscan competitive binding assay relative to control
[5] = tested on: Phosphatidylinositol 4,5-bisphosphate 3-kinase catalytic subunit alpha isoform (Homo sapiens), P42336 [E542K]; assay: Inhibition of PIK3CA E542K mutant (unknown origin) assessed as remaining activity at 15 uM incubated for 1 hr by KINOMEscan competitive binding assay relative to control
[6] = biological target: Serine/threonine-protein kinase Chk2 (Homo sapiens) (UniProt O96017); assay: Inhibition of CHEK2 (unknown origin) assessed as remaining activity at 15 uM incubated for 1 hr by KINOMEscan competitive binding assay relative to control
[7] = biological target: T1, Phosphatidylinositol 4,5-bisphosphate 3-kinase catalytic subunit delta isoform (Homo sapiens) (UniProt O00329); assay: Inhibition of PIK3CD (unknown origin) assessed as remaining activity at 15 uM incubated for 1 hr by KINOMEscan competitive binding assay relative to control
T1 sequence (whole entry): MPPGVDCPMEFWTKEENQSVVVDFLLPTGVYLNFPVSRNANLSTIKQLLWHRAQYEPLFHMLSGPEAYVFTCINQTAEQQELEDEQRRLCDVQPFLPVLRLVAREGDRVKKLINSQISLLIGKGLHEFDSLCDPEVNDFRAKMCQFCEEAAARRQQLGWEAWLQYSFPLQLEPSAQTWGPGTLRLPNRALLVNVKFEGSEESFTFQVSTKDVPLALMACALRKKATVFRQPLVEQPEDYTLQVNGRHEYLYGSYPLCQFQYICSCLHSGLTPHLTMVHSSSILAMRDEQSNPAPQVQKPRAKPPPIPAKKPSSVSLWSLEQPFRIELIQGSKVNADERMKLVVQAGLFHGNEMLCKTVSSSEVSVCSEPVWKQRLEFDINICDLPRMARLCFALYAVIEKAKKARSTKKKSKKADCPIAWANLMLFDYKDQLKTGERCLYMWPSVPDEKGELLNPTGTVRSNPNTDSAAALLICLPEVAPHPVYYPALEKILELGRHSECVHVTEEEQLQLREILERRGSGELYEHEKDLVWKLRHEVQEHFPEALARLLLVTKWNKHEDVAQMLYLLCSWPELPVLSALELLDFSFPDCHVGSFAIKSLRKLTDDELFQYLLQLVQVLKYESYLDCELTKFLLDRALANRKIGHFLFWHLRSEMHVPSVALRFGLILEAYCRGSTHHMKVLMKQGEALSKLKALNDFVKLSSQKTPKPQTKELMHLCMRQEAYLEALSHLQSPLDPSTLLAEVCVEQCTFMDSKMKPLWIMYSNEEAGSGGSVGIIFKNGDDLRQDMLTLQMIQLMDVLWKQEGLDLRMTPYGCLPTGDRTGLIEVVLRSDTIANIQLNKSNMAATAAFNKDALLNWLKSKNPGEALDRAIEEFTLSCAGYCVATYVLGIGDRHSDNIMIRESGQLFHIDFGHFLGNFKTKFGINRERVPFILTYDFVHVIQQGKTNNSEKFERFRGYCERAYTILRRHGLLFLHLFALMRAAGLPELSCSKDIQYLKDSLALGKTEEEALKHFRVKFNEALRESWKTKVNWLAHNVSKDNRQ

[8] = tested on: Phosphatidylinositol 4,5-bisphosphate 3-kinase catalytic subunit alpha isoform (Homo sapiens), P42336 [I800L]; assay: Inhibition of PIK3CA I800L mutant (unknown origin) assessed as remaining activity at 15 uM incubated for 1 hr by KINOMEscan competitive binding assay relative to control
[9] = tested on: Phosphatidylinositol 4,5-bisphosphate 3-kinase catalytic subunit alpha isoform (Homo sapiens), P42336 [E545K]; assay: Inhibition of PIK3CA E545K mutant (unknown origin) assessed as remaining activity at 15 uM incubated for 1 hr by KINOMEscan competitive binding assay relative to control
[10] = tested on: Phosphatidylinositol 4,5-bisphosphate 3-kinase catalytic subunit alpha isoform (Homo sapiens), P42336 [C420R]; assay: Inhibition of PIK3CA C420R mutant (unknown origin) assessed as remaining activity at 15 uM incubated for 1 hr by KINOMEscan competitive binding assay relative to control
[11] = biological target: Serine/threonine-protein kinase 38-like (Homo sapiens) (UniProt Q9Y2H1); assay: Binding affinity to STK38L in human SKNBE2 cells assessed as effect on thermal stability at 49 degC incubated for 3 hrs by CETSA assay; format: cell-based
[12] = biological target: T2, N-myc proto-oncogene protein (Homo sapiens) (UniProt P04198); assay: Induction of MYCN degradation in human SKNBE2 cells at 5 uM incubated for 24 hrs by Western blot analysis; format: cell-based
T2 sequence (whole entry): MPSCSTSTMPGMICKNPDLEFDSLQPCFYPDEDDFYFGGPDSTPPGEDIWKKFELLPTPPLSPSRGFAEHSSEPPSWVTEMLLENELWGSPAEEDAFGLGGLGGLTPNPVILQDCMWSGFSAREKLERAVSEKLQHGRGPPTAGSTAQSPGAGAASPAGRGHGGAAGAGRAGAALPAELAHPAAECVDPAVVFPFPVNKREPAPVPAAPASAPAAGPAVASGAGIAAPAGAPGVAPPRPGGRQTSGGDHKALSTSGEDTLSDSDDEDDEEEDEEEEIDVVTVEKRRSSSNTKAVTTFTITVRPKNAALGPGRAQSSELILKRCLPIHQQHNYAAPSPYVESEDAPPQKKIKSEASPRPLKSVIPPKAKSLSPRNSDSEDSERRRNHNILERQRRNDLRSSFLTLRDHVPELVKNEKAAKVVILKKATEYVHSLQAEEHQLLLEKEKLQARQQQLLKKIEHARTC

[13] = biological target: Casein kinase II subunit alpha (Homo sapiens) (UniProt P68400); assay: Inhibition of CSNK2A1 (unknown origin) assessed as remaining activity at 10 uM incubated for 1 hr by KINOMEscan competitive binding assay relative to control
[14] = tested on: Phosphatidylinositol 4,5-bisphosphate 3-kinase catalytic subunit alpha isoform (Homo sapiens), P42336 [Q546K]; assay: Inhibition of PIK3CA Q546K mutant (unknown origin) assessed as remaining activity at […] incubated for 1 hr by KINOMEscan competitive binding assay relative to control

Chain of Phosphatidylinositol 4,5-bisphosphate 3-kinase catalytic subunit alpha isoform (Homo sapiens), P42336 [H1047L] (P42336 whole entry H1047L, canonical isoform): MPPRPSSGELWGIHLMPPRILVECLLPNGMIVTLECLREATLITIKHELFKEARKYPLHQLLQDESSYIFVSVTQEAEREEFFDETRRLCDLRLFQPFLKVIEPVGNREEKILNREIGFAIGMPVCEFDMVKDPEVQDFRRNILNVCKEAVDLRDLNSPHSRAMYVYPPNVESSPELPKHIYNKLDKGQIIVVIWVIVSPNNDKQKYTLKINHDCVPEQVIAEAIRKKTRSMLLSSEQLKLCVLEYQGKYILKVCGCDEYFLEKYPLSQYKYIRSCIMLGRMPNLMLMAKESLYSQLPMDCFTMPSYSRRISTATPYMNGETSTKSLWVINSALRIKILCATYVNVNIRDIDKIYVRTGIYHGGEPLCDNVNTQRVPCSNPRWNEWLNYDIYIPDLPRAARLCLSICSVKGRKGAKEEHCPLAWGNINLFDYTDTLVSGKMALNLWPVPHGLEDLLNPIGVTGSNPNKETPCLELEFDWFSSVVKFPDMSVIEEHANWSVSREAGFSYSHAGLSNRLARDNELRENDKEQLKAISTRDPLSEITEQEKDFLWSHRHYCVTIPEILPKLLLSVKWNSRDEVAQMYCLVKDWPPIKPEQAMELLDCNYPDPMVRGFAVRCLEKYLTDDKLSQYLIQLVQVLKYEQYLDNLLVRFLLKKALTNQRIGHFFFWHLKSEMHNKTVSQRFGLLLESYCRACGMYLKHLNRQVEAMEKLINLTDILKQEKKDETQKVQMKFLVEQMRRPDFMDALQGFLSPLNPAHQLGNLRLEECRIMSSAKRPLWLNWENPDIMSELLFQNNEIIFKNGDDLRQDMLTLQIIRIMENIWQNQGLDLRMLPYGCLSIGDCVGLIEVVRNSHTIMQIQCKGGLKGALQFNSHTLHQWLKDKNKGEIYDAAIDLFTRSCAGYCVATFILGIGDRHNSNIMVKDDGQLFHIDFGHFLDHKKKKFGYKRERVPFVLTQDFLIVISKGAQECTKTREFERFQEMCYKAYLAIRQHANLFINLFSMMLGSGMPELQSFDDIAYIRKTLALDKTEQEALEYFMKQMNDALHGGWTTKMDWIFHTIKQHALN
Chain of Phosphatidylinositol 4,5-bisphosphate 3-kinase catalytic subunit alpha isoform (Homo sapiens), P42336 [C420R] (P42336 whole entry C420R, canonical isoform): as the sequence (P42336 whole entry H1047L, canonical isoform) above, with C420R, L1047H counted along it
Chain of Phosphatidylinositol 4-phosphate 3-kinase C2 domain-containing subunit beta (Homo sapiens) (O00750 whole entry, the tested form may be a part, canonical isoform): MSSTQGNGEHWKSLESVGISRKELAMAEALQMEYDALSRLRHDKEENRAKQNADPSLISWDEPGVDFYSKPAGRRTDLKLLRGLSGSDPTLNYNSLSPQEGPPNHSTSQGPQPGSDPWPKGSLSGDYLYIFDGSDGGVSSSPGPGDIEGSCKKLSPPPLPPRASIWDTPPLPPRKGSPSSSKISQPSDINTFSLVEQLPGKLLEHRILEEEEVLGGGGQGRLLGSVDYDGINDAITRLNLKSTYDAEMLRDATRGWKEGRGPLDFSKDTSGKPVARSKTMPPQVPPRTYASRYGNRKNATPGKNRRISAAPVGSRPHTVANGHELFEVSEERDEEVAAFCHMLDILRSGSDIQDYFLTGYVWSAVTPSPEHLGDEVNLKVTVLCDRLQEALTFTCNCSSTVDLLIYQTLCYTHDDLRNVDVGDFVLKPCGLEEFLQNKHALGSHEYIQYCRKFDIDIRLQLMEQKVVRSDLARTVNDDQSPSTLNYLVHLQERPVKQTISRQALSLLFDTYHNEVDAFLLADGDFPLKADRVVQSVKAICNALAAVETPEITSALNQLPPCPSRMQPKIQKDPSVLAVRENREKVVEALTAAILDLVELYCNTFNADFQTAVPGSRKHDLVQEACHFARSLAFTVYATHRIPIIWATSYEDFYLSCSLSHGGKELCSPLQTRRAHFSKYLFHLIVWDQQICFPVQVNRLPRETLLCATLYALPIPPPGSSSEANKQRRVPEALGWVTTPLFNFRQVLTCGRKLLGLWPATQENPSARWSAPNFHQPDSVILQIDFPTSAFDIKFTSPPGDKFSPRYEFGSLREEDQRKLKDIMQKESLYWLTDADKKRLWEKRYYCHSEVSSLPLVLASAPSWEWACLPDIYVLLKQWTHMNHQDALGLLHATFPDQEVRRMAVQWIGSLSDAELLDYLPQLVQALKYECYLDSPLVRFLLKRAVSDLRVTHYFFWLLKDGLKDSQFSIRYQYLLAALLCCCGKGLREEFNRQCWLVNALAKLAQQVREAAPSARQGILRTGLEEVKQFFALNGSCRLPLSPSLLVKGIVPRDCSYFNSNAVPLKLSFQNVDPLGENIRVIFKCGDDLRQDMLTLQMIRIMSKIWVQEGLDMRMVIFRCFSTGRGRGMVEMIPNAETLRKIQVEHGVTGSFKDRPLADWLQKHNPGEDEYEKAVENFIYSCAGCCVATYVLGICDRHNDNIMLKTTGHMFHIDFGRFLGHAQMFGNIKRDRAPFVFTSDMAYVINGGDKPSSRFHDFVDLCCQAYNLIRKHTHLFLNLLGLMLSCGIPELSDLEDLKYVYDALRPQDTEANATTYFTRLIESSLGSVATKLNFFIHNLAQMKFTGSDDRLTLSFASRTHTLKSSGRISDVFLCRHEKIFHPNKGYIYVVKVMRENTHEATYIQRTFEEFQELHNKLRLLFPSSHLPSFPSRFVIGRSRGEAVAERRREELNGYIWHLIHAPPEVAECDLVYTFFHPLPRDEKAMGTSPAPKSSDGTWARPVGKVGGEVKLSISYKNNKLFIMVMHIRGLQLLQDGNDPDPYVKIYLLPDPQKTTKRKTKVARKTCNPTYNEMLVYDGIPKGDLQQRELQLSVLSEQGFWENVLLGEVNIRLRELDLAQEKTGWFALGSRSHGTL
Chain of Phosphatidylinositol 4,5-bisphosphate 3-kinase catalytic subunit alpha isoform (Homo sapiens), P42336 [E542K] (P42336 whole entry E542K, canonical isoform): as the sequence (P42336 whole entry H1047L, canonical isoform) above, with E542K, L1047H counted along it

Structure (SMILES)	Activity [1] [%]	Activity [2] [%]	Activity [3] [%]	Activity [4] [%]	Activity [5] [%]	Activity [6] [%]	Activity [7] [%]	Activity [8] [%]	Activity [9] [%]	Activity [10] [%]	Activity [11]	Activity [12]	Activity [13] [%]	Activity [14] [%]
CC(C)CC(=O)Oc1ccc2occ(-c3ccc(O)c(O)c3)c(=O)c2c1	98	91	91	69	93	76	93	98	66	87	–	–	–	–
CC(C)CCOc1ccc2c(=O)c(-c3ccc(O)c(O)c3)coc2c1	98	100	100	80	98	75	97	91	79	94	inactive	Active	–	–
NC(=O)Nc1cc(-c2cccc(F)c2)sc1C(=O)N[C@H]1CCCNC1	–	–	–	–	–	–	–	–	–	–	–	–	0.8	–
CC(C)=CCc1c2c(c3occ(-c4ccc(O)c(O)c4)c(=O)c3c1O)C=CC(C)(C)O2	–	–	–	–	–	–	–	–	–	–	inactive	–	–	100
